# Laboratory results as given in patent US11072611B2, “Compounds and pharmaceutical compositions thereof for the treatment of inflammatory disorders” (Galapagos NV, priority 2013, dated 2021).
# pIC50: −log10 of the molar value.
# System: LPA 18:2
# Assay: Rat whole blood (plasma) LPA assay
# Format: biochemical
# Conditions: 2 h at 37° C., LPA 18:2 by LC-MS/MS
# Experimental: Whole blood is collected from rats or mouse by exsanguinations on sodium heparin tube, then after centrifugation at 3000 rpm for 15 min at 4° C., plasma is stored at −80° C. Compounds are diluted in DMSO in concentration dependent manner then 0.5 μL are dispensed into 96-well plate placed in ice. Plasma is defrosted on ice then 49.5 μL of plasma are added into the well containing 0.5 μL of compound (1% DMSO final). Plates are covered with a lid in polypropylene and incubated at +37° C., 5% CO2, for 2 h under gentle shaking (except controls which are stored at −20° C.).
# At the end of the incubation, controls are defrosted in ice and transferred in the incubated plates for LC-MS/MS analysis with a non GLP-validated method. For the analysis, plasma proteins from a 10 μL incubated plates are precipitated with an excess of methanol containing the internal standard, LPA 17:0. After centrifugation, the corresponding supernatant is injected on a C18 column. Analytes are eluted out of the column under isocratic conditions. An API5500 QTRAP mass spectrometer (ABSciex™) is used for the detection of LPA 18:2. No calibration curve is prepared for LPA 18:2, however relative quantities are evaluated based on the peak area.
row,pIC50,Compound
1,7.00 to 11.00,"CCc1nc2c(F)cc(N3CCN(CC(=O)NC)CC3)cn2c1N(C)c1nc(-c2ccc(F)cc2)c(C#N)s1 [Compound 13, 2-(4-(3-((5-cyano-4-(4-fluorophenyl)thiazol-2-yl)(methyl)amino)-2-ethyl-8-fluoroimidazo[1,2-a]pyridin-6-yl)piperazin-1-yl)-N-methylacetamide]"
2,7.00 to 11.00,"CCc1nc2c(F)cc(N3CCN(CC(=O)N4CC(O)C4)CC3)cn2c1N(C)c1nc(-c2ccc(F)cc2)cs1 [Compound 14, 2-(4-(2-ethyl-8-fluoro-3-((4-(4-fluorophenyl)thiazol-2-yl)(methyl)amino)imidazo[1,2-a]pyridin-6-yl)piperazin-1-yl)-1-(3-hydroxyazetidin-1-yl)ethanone]"
3,7.00 to 11.00,"CCc1nc2cc(F)c(N3CCN(CC(=O)N4CC(O)C4)CC3)cn2c1N(C)c1nc(-c2ccc(F)cc2)c(C#N)s1 [Compound 18, 2-[(2-Ethyl-7-fluoro-6-{4-[2-(3-hydroxy-azetidin-1-yl)-2-oxo-ethyl]-piperazin-1-yl}-imidazo[1,2-a]pyridin-3-yl)-methyl-amino]-4-(4-fluoro-phenyl)-thiazole-5-carbonitrile]"
4,< 6.00,"CCc1nc2cc(F)c(N3CCN(CC(=O)N4CC(O)C4)CC3)cn2c1N(C)c1nc(-c2ccc(F)cc2)cs1 [Compound 19, 2-[4-(2-Ethyl-7-fluoro-3-{[4-(4-fluoro-phenyl)-thiazol-2-yl]-methyl-amino}-imidazo[1,2-a]pyridin-6-yl)-piperazin-1-yl]-1-(3-hydroxy-azetidin-1-yl)-ethanone]"
5,< 6.00,"CCc1nc2ccc(N3CCN(CC(=O)N4CC[C@@H](O)C4)CC3)cn2c1N(C)c1nc(-c2ccc(F)cc2)cs1 [Compound 26, (R)-2-(4-(2-ethyl-3-((4-(4-fluorophenyl)thiazol-2-yl)(methyl)amino)imidazo[1,2-a]pyridin-6-yl)piperazin-1-yl)-1-(3-hydroxypyrrolidin-1-yl)ethanone]"
6,< 6.00,"CCc1nc2ccc(N3CCN(C(=O)C4CCCN4)CC3)cn2c1N(C)c1nc(-c2ccc(F)cc2)cs1 (centres unmarked) [Compound 46, (4-(2-ethyl-3-((4-(4-fluorophenyl)thiazol-2-yl)(methyl)amino)imidazo[1,2-a]pyridin-6-yl)piperazin-1-yl)(pyrrolidin-2-yl)methanone]"
7,< 6.00,"CCc1nc2ccc(N3CCN(C(=O)C4CCN(C(C)=O)C4)CC3)cn2c1N(C)c1nc(-c2ccc(F)cc2)cs1 (centres unmarked) [Compound 48, 1-{3-[4-(2-Ethyl-3-{[4-(4-fluoro-phenyl)-thiazol-2-yl]-methyl-amino}-imidazo[1,2-a]pyridin-6-yl)-piperazine-1-carbonyl]-pyrrolidin-1-yl}-ethanone]"
8,< 6.00,"CCc1nc2ccc(N3CCN(C(=O)CCCN(C)C)CC3)cn2c1N(C)c1nc(-c2ccc(F)cc2)cs1 [Compound 53, 4-(dimethylamino)-1-(4-(2-ethyl-3-((4-(4-fluorophenyl)thiazol-2-yl)(methyl)amino)imidazo[1,2-a]pyridin-6-yl)piperazin-1-yl)butan-1-one]"
9,< 6.00,"CCc1nc2ccc(N3CCN(S(C)(=O)=O)CC3)cn2c1N(C)c1nc(-c2ccc(F)cc2)cs1 [Compound 54, N-(2-ethyl-6-(4-(methylsulfonyl)piperazin-1-yl)imidazo[1,2-a]pyridin-3-yl)-4-(4-fluorophenyl)-N-methylthiazol-2-amine]"
10,< 6.00,"CCc1nc2ccc(N3CCN(S(=O)(=O)CCCN(C)C)CC3)cn2c1N(C)c1nc(-c2ccc(F)cc2)cs1 [Compound 56, N-(6-(4-(3-(dimethylamino)propylsulfonyl)piperazin-1-yl)-2-ethylimidazo[1,2-a]pyridin-3-yl)-4-(4-fluorophenyl)-N-methylthiazol-2-amine]"
11,< 6.00,"CCc1nc2ccc(N3CCN(S(=O)(=O)CCCO)CC3)cn2c1N(C)c1nc(-c2ccc(F)cc2)cs1 [Compound 58, 3-(4-(2-ethyl-3-((4-(4-fluorophenyl)thiazol-2-yl)(methyl)amino)imidazo[1,2-a]pyridin-6-yl)piperazin-1-ylsulfonyl)propan-1-ol]"
12,< 6.00,"CCc1nc2ccc(C3=CCN(S(C)(=O)=O)CC3)cn2c1N(C)c1nc(-c2ccc(F)cc2)cs1 [Compound 66, N-(2-ethyl-6-(1-(methylsulfonyl)-1,2,3,6-tetrahydropyridin-4-yl)imidazo[1,2-a]pyridin-3-yl)-4-(4-fluorophenyl)-N-methylthiazol-2-amine]"
13,< 6.00,"CCc1nc2ccc(C3=CCN(S(C)(=O)=O)CC3)cn2c1N(C)c1nc(-c2ccc(OC(F)(F)F)cc2)cs1 [Compound 72, N-(2-ethyl-6-(1-(methylsulfonyl)-1,2,3,6-tetrahydropyridin-4-yl)imidazo[1,2-a]pyridin-3-yl)-N-methyl-4-(4-(trifluoromethoxy)phenyl)thiazol-2-amine]"
14,< 6.00,"CCc1nc2ccc(C3=CCN(S(=O)(=O)CCCO)CC3)cn2c1N(C)c1nc(-c2ccc(F)cc2)cs1 [Compound 75, 3-(4-(2-ethyl-3-((4-(4-fluorophenyl)thiazol-2-yl)(methyl)amino)imidazo[1,2-a]pyridin-6-yl)-5,6-dihydropyridin-1(2H)-ylsulfonyl)propan-1-ol]"
15,< 6.00,CCc1nc2ccc(C3CCN(S(=O)(=O)CCN4CCOCC4)CC3)cn2c1N(C)c1nc(-c2ccc(F)cc2)cs1 [Compound 91]
16,7.00 to 11.00,"CCc1nc2ccc(C3CCN(S(C)(=O)=O)CC3)cn2c1N(C)c1nc(-c2ccc(F)cc2C#N)cs1 [Compound 96, 2-(2-((2-ethyl-6-(1-(methylsulfonyl)piperidin-4-yl)imidazo[1,2-a]pyridin-3-yl)(methyl)amino)thiazol-4-yl)-5-fluorobenzonitrile]"
17,7.00 to 11.00,"CCc1nc2ccc(C3CCN(CC(=O)N4CCCC4)CC3)cn2c1N(C)c1nc(-c2ccc(F)cc2)cs1 [Compound 115, 2-(4-(2-ethyl-3-((4-(4-fluorophenyl)thiazol-2-yl)(methyl)amino)imidazo[1,2-a]pyridin-6-yl)piperidin-1-yl)-1-(pyrrolidin-1-yl)ethanone]"
18,7.00 to 11.00,"CCc1nc2ccc(C3CCN(S(C)(=O)=O)CC3)cn2c1N(C)c1nc(-c2ccc(F)cc2)c(C#N)s1 [Compound 136, 2-((2-ethyl-6-(1-(methylsulfonyl)piperidin-4-yl)imidazo[1,2-a]pyridin-3-yl)(methyl)amino)-4-(4-fluorophenyl)thiazole-5-carbonitrile]"
19,7.00 to 11.00,"CCc1nc2ccc(N3CCN(CC(=O)N4CC(O)C4)CC3)cn2c1N(C)c1nc(-c2ccc(F)cc2)c(C#N)s1 [Compound 138, 2-((2-ethyl-6-(4-(2-(3-hydroxyazetidin-1-yl)-2-oxoethyl)piperazin-1-yl)imidazo[1,2-a]pyridin-3-yl)(methyl)amino)-4-(4-fluorophenyl)thiazole-5-carbonitrile]"
20,7.00 to 11.00,"CCc1nc2ccc(N3CCN(CC(=O)N(C)C)CC3)cn2c1N(C)c1nc(-c2ccc(F)cc2)c(C#N)s1 [Compound 140, 2-(4-(3-((5-cyano-4-(4-fluorophenyl)thiazol-2-yl)(methyl)amino)-2-ethylimidazo[1,2-a]pyridin-6-yl)piperazin-1-yl)-N,N-dimethylacetamide]"
21,7.00 to 11.00,"CCc1nc2ccc(C3CCN(CC(=O)N4CC(O)C4)CC3)cn2c1N(C)c1nc(-c2ccc(F)cc2)c(C#N)s1 [Compound 141, 2-((2-ethyl-6-(1-(2-(3-hydroxyazetidin-1-yl)-2-oxoethyl)piperidin-4-yl)imidazo[1,2-a]pyridin-3-yl)(methyl)amino)-4-(4-fluorophenyl)thiazole-5-carbonitrile]"
22,7.00 to 11.00,"CCc1nc2ccc(C3CCN(CC(=O)N4CC[C@@H](O)C4)CC3)cn2c1N(C)c1nc(-c2ccc(F)cc2)c(C#N)s1 [Compound 142, (R)-2-((2-ethyl-6-(1-(2-(3-hydroxypyrrolidin-1-yl)-2-oxoethyl)piperidin-4-yl)imidazo[1,2-a]pyridin-3-yl)(methyl)amino)-4-(4-fluorophenyl)thiazole-5-carbonitrile]"
23,7.00 to 11.00,"CCc1nc2ccc(C3CCN(CC(=O)N4CC[C@H](O)C4)CC3)cn2c1N(C)c1nc(-c2ccc(F)cc2)c(C#N)s1 [Compound 143, (S)-2-((2-ethyl-6-(1-(2-(3-hydroxypyrrolidin-1-yl)-2-oxoethyl)piperidin-4-yl)imidazo[1,2-a]pyridin-3-yl)(methyl)amino)-4-(4-fluorophenyl)thiazole-5-carbonitrile]"
24,7.00 to 11.00,"CCc1nc2ccc(C3CCN(CC(=O)N4CC(CO)C4)CC3)cn2c1N(C)c1nc(-c2ccc(F)cc2)c(C#N)s1 [Compound 144, 2-((2-ethyl-6-(1-(2-(3-(hydroxymethyl)azetidin-1-yl)-2-oxoethyl)piperidin-4-yl)imidazo[1,2-a]pyridin-3-yl)(methyl)amino)-4-(4-fluorophenyl)thiazole-5-carbonitrile]"
25,7.00 to 11.00,"CCc1nc2ccc(C3CCN(CC(=O)N(C)C)CC3)cn2c1N(C)c1nc(-c2ccc(F)cc2)c(C#N)s1 [Compound 145, 2-(4-(3-((5-cyano-4-(4-fluorophenyl)thiazol-2-yl)(methyl)amino)-2-ethylimidazo[1,2-a]pyridin-6-yl)piperidin-1-yl)-N,N-dimethylacetamide]"
26,< 6.00,"CCc1nc2ccc(C3CCN(S(=O)(=O)CCCN(C)C)CC3)cn2c1N(C)c1nc(-c2ccc(F)cc2)c(CO)s1 [Compound 149, (2-((6-(1-(3-(dimethylamino)propylsulfonyl)piperidin-4-yl)-2-ethylimidazo[1,2-a]pyridin-3-yl)(methyl)amino)-4-(4-fluorophenyl)thiazol-5-yl)]"
